Holding throughout (assay type): cell-based
The subject of one assay is K562 cells. Briefly: Cell growth inhibitory activity assay (CellTiter-Glo), K562 cells. Conditions: Homo sapiens, 72 h, CTG cell viability. The procedure: (§1) In this assay, the Celltiter-Glo (CTG) kit provided by Promega was used, and it is a homogeneous cell viability assay method. The cell viability of cultured cells was measured by quantifying ATP. K562 cells were purchased from Nanjing Kebai, product number CBP60529; Ba/F3 parental cells were purchased from RIKEN BRC, product number RCB0805; other cells containing BCR-ABL1 WT, BCR-ABL1 T315I, BCR-ABL1 T315M, BCR-ABL1 Y253H/E255K, BCR-ABL1 E255V/T3151, BCR-ABL1 A424T, BCR-ABL1 A337V, BCR-ABL1 P465S, BCR-ABL1 V468F, and BCR-ABL1 I502L were all monoclonal engineered cell lines obtained by transducting Ba/F3 parental cells with the lentivirus plasmids containing WT or corresponding mutated BCR-ABL1.
(§2) The steps of cell viability assay are as follows: • a) Cells in logarithmic growth phase were collected. Cell suspension was prepared and the cells were counted. Concentration of the cells was calculated. • b) The cell suspension was diluted to the required concentration and then added to the middle wells of a 96-well plate, and PBS was added to the edge wells. The wells with no cells and only culture medium were used as blank controls. • c) In addition to the cell plate used for compound analysis, another 96-well plate was prepared as a T0 plate, and 3-6 blank wells and 3-6 cell wells were added. The next day, CTG was used to test the cell viability as the T0 viability value of the cells. • d) The cell plate was incubated at 37 °C in a 5% CO2 incubator overnight. • e) The next day, each concentration of a compound subjected to a gradient dilution was added, and the cell plate was incubated at 37 °C in a 5% CO2 incubator for 72 h. The wells with no compound and only 0.5% DMSO were used as positive controls for cell growth. • f) CTG reagent (CellTiter-Glo kit) was added according to the manufacturer's instructions to test the cell viability value. • g) The plate was read using Biotek cytation3.0 microplate reader and the data were exported. • h) IC50 was calculated using GraphPad Prism 7.0 software.
(§3) The IC50 (half-maximal inhibitory concentration) of the compound was obtained using the following nonlinear fitting formula: Y = Bottom + (Top−Bottom)/(1+10^(∧)((LogIC50−X)*HillSlope)) [formula] • X: Log value of the compound concentration • Y: Inhibition rate (% inhibition) • Top: Maximum response • Bottom: Baseline response • HillSlope: Slope of the curve
(§4) The formula for calculating cell inhibition rate (inhibition rate %) was: [formula]
On the technique in general: ATP-based viability assays read luminescence as a measure of living cells.

In the next assay the target is T1, Ba/F3 BCR-ABL1 WT (Homo sapiens, UniProt P00519+P11274).
T1 construct: BCR (N-terminal fusion partner of the oncoprotein); expressed in transfected cells; host or cells: Ba/F3 (lentiviral transduction, monoclonal line)
In words: Cell growth inhibitory activity assay (CellTiter-Glo), Ba/F3 BCR-ABL1 WT cells. Conditions: 72 h, CTG cell viability. On the procedure: as §1, §2, §3, §4

Another assay has as its target T2, Ba/F3 BCR-ABL1 T315I (Homo sapiens, UniProt P00519+P11274, T315I).
T2 construct: BCR (N-terminal fusion partner of the oncoprotein); expressed in transfected cells; host or cells: Ba/F3 (lentiviral transduction, monoclonal line)
In words: Cell growth inhibitory activity assay (CellTiter-Glo), Ba/F3 BCR-ABL1 T315I cells. Conditions: 72 h, CTG cell viability. On the procedure: as §1, §2, §3, §4

In the next assay the test system is Ba/F3 parental cells. In words: Cell growth inhibitory activity assay (CellTiter-Glo), Ba/F3 parental cells. The following applies: Mus musculus, BaF3, 72 h, CTG cell viability, read-out: IC50 Ba/F3 BCR-ABL1 Parental. On the procedure:
as §1, §2, §3, §4

Structures are written as SMILES. Where only a bound is given, the exact number is not on record here.

With `O=C(Nc1ccc(OC(F)(F)Cl)cc1)c1cnc(N2CC[C@@H](F)C2)c(-c2cnc3c(c2)-c2nn(-c4ncc5ccccc5n4)cc2C3)c1` [T-29, (R)-N-(4-(chlorodifluoromethoxy)phenyl)-6-(3-fluoropyrrolidin-1-yl)-5-(2-(quinazolin-2-yl)-2,4-dihydropyrazolo[3',4':3,4]cyclopenta[1,2-b]pyridin-7-yl)nicotinamide], the IC50 is at most 5 nM in the assay on K562 cells, at most 5 nM at Ba/F3 BCR-ABL1 WT, 5 to 50 nM against Ba/F3 BCR-ABL1 T315I and above 1000 nM with Ba/F3 parental cells.

Take `O=C(Nc1ccc(OC(F)(F)Cl)cc1)c1cnc(N2CC[C@@H](F)C2)c(-c2cnc3c(c2)-c2nn(-c4nccc(N5CCOCC5)n4)cc2C3)c1` [T-34, (R)-N-(4-(chlorodifluoromethoxy)phenyl)-6-(3-fluoropyrrolidin-1-yl)-5-(2-(4-morpholinopyrimidin-2-yl)-2,4-dihydropyrazolo[3',4':3,4]cyclopenta[1,2-b]pyridin-7-yl)nicotinamide]: the IC50 in the assay with K562 cells is at most 5 nM; at Ba/F3 BCR-ABL1 WT, at most 5 nM; against Ba/F3 BCR-ABL1 T315I it was at most 5 nM; with Ba/F3 parental cells, above 1000 nM.

`C[C@@H]1CN(C)Cc2nc3cc(C(=O)Nc4ccc(OC(F)(F)Cl)cc4)cc(-c4cnc5c(c4)C(=O)N(C4CC4)C5)c3n21` [T-36, (R)-N-(4-(chlorodifluoromethoxy)phenyl)-6-(6-cyclopropyl-5-oxo-6,7-dihydro-5H-pyrrolo[3,4-b]pyridin-3-yl)-2,4-dimethyl-1,2,3,4-tetrahydrobenzo[4,5]imidazo[1,2-a]pyrazine-8-carboxamide]: the IC50 in the assay with K562 cells was at most 5 nM; on Ba/F3 BCR-ABL1 WT, at most 5 nM; on Ba/F3 BCR-ABL1 T315I, above 1000 nM; in the assay with Ba/F3 parental cells it was above 1000 nM.

As to `Cn1ccc2cnc(-n3cc4c(n3)-c3cc(-c5cc(C(=O)Nc6ccc(OC(F)(F)Cl)cc6)cnc5N5CC[C@@H](F)C5)cnc3C4)nc21` [T-38, (R)-N-(4-(chlorodifluoromethoxy)phenyl)-6-(3-fluoropyrrolidin-1-yl)-5-(2-(7-methyl-7H-pyrrolo[2,3-d]pyrimidin-2-yl)-2,4-dihydropyrazolo[3',4':3,4]cyclopenta[1,2-b]pyridin-7-yl)nicotinamide], the IC50 in the assay on K562 cells was at most 5 nM; at Ba/F3 BCR-ABL1 WT it was at most 5 nM; at Ba/F3 BCR-ABL1 T315I, at most 5 nM; in the assay with Ba/F3 parental cells, above 1000 nM.

For the compound `C[C@@H]1CN(C)Cc2nc3cc(C(=O)Nc4ccc(OC(F)(F)Cl)cc4)cc(-c4cnc5c(c4)-c4n[nH]cc4C5)c3n21` [T-40, (R)-N-(4-(chlorodifluoromethoxy)phenyl)-6-(2,4-dihydropyrazolo[3',4':3,4]cyclopenta[1,2-b]pyridin-7-yl)-2,4-dimethyl-1,2,3,4-tetrahydrobenzo[4,5]imidazo[1,2-a]pyrazine-8-carboxamide], the IC50 is at most 5 nM in the assay with K562 cells, at most 5 nM against Ba/F3 BCR-ABL1 WT, above 1000 nM against Ba/F3 BCR-ABL1 T315I and above 1000 nM in the assay with Ba/F3 parental cells.

Consider `O=C(Nc1ccc(OC(F)(F)Cl)cc1)c1cnc(N2CC[C@@H](F)C2)c(-c2cnc3c(c2)-c2nn(-c4ncc5ccsc5n4)cc2C3)c1` [T-44, (R)-N-(4-(chlorodifluoromethoxy)phenyl)-6-(3-fluoropyrrolidin-1-yl)-5-(2-(thieno[2,3-d]pyrimidin-2-yl)-2,4-dihydropyrazolo[3',4':3,4]cyclopenta[1,2-b]pyridin-7-yl)nicotinamide], for which the IC50 is at most 5 nM in the assay with K562 cells, at most 5 nM against Ba/F3 BCR-ABL1 WT, at most 5 nM on Ba/F3 BCR-ABL1 T315I and above 1000 nM in the assay on Ba/F3 parental cells.

As to `CCC(=O)n1cc2c(n1)-c1cc(-c3cc(C(=O)Nc4ccc(OC(F)(F)Cl)cc4)cc4nc5n(c34)[C@H](C)COC5)cnc1C2` [T-45, (R)-N-(4-(chlorodifluoromethoxy)phenyl)-4-methyl-6-(2-propionyl-2,4-dihydropyrazolo[3',4':3,4]cyclopenta[1,2-b]pyridin-7-yl)-3,4-dihydro-1H-benzo[4,5]imidazo[2,1-c][1,4]oxazine-8-carboxamide], the IC50 in the assay with K562 cells is at most 5 nM; at Ba/F3 BCR-ABL1 WT it was at most 5 nM; on Ba/F3 BCR-ABL1 T315I it was at most 5 nM; in the assay on Ba/F3 parental cells it was above 1000 nM.

As to `CC(C)C(=O)n1cc2c(n1)-c1cc(-c3cc(C(=O)Nc4ccc(OC(F)(F)Cl)cc4)cc4nc5n(c34)[C@H](C)COC5)cnc1C2` [T-46, (R)-N-(4-(chlorodifluoromethoxy)phenyl)-6-(2-isobutyryl-2,4-dihydropyrazolo[3',4':3,4]cyclopenta[1,2-b]pyridin-7-yl)-4-methyl-3,4-dihydro-1H-benzo[4,5]imidazo[2,1-c][1,4]oxazine-8-carboxamide], the IC50 is at most 5 nM with K562 cells, at most 5 nM on Ba/F3 BCR-ABL1 WT, at most 5 nM at Ba/F3 BCR-ABL1 T315I and above 1000 nM in the assay on Ba/F3 parental cells.

As to `C[C@@H]1COCc2nc3cc(C(=O)Nc4ccc(OC(F)(F)Cl)cc4)cc(-c4cnc5c(c4)-c4nn(C(=O)C6CC6)cc4C5)c3n21` [T-47, (R)-N-(4-(chlorodifluoromethoxy)phenyl)-6-(2-(cyclopropylcarbonyl)-2,4-dihydropyrazolo[3',4':3,4]cyclopenta[1,2-b]pyridin-7-yl)-4-methyl-3,4-dihydro-1H-benzo[4,5]imidazo[2,1-c][1,4]oxazine-8-carboxamide], the IC50 with K562 cells was at most 5 nM; on Ba/F3 BCR-ABL1 WT, at most 5 nM; on Ba/F3 BCR-ABL1 T315I it was at most 5 nM; in the assay on Ba/F3 parental cells, above 1000 nM.

For `O=C(Nc1ccc(OC(F)(F)Cl)cc1)c1cnc(N2CC[C@@H](F)C2)c(-c2cnc3c(c2)-c2nn(-c4ncc(N5CC[C@@H](F)C5)cn4)cc2C3)c1` [T-50, N-(4-(chlorodifluoromethoxy)phenyl)-6-((R)-3-fluoropyrrolidin-1-yl)-5-(2-(5-((R)-3-fluoropyrrolidin-1-yl)pyrimidin-2-yl)-2,4-dihydropyrazolo[3',4':3,4]cyclopenta[1,2-b]pyridin-7-yl)nicotinamide], the IC50 in the assay with K562 cells is at most 5 nM; on Ba/F3 BCR-ABL1 WT it was at most 5 nM; at Ba/F3 BCR-ABL1 T315I, 5 to 50 nM; in the assay on Ba/F3 parental cells, above 1000 nM.

Turning to `[2H]C([2H])([2H])n1cc2c(n1)-c1cc(-c3cc(C(=O)Nc4ccc(OC(F)(F)Cl)cc4)cc4nc5n(c34)[C@H](C)COC5)cnc1C2` [T-53, (R)-N-(4-(chlorodifluoromethoxv)phenyl)-4-methyl-6-(2-(methyl-d3)-2,4-dihydropyrazolo[3',4':3,4]cyclopenta[1,2-b]pyridin-7-yl)-3,4-dihydro-1H-benzo[4,5]imidazo[2,1-c][1,4]oxazine-8-carboxamide], the IC50 in the assay with K562 cells is at most 5 nM; on Ba/F3 BCR-ABL1 WT, at most 5 nM; against Ba/F3 BCR-ABL1 T315I, at most 5 nM; with Ba/F3 parental cells, above 1000 nM.

In the case of `O=C(Nc1ccc(OC(F)(F)Cl)cc1)c1cnc(N2CC[C@@H](F)C2)c(-c2cnc3c(c2)-c2nn(-c4ncc(N5CC[C@H](F)C5)cn4)cc2C3)c1` [T-55, N-(4-(chlorodifluoromethoxy)phenyl)-6-((R)-3-fluoropyrrolidin-1-yl)-5-(2-(5-((S)-3-fluoropyrrolidin-1-yl)pyrimidin-2-yl)-2,4-dihydropyrazolo[3',4':3,4]cyclopenta[1,2-b]pyridin-7-yl)nicotinamide], the IC50 with K562 cells was at most 5 nM; at Ba/F3 BCR-ABL1 WT, at most 5 nM; against Ba/F3 BCR-ABL1 T315I it was 5 to 50 nM; in the assay with Ba/F3 parental cells it was above 1000 nM.

Source of the values: patent publication EP4768484A1, “HETEROCYCLIC FUSED RING COMPOUND, AND COMPOSITION AND USE THEREOF” (Shenzhen TargetRx, Inc., priority 2023, dated 2025).
